In PubChem BioAssay (NCI):
“And” between values parts separate entries of the source, which are not always exact repeats. Identical values can stand only once.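 A five-concentration, 48-hour dose response in 96-well plates underlies each endpoint, interpolated linearly between surrounding concentrations. GI50 = concentration required for 50% inhibition of growth. TGI: total growth inhibition.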

Experiments:
Experiment in all cases: growth of human tumour cells (NCI), 48 h
[1] = tested on: KM12 colon
[2] = tested on: MCF7 breast
[3] = tested on: HOP-62 NSCLC
[4] = tested on: IGROV1 ovarian
[5] = tested on: ACHN renal
[6] = tested on: SR leukemia
[7] = tested on: HL-60(TB) leukemia
[8] = tested on: MOLT-4 leukemia
[9] = tested on: SK-MEL-28 melanoma
[10] = tested on: LOX IMVI melanoma
[11] = tested on: OVCAR-8 ovarian
[12] = tested on: HCT-15 colon
[13] = tested on: SNB-75 CNS
[14] = tested on: SF-268 CNS
[15] = tested on: DU-145 prostate
[16] = tested on: OVCAR-4 ovarian
[17] = tested on: PC-3 prostate
[18] = tested on: M14 melanoma
[19] = tested on: A498 renal
[20] = tested on: BT-549 breast
[21] = tested on: K-562 leukemia
[22] = tested on: SF-295 CNS
[23] = tested on: UACC-257 melanoma
[24] = tested on: EKVX NSCLC
[25] = tested on: UACC-62 melanoma
[26] = tested on: RXF 393 renal
[27] = tested on: 786-0 renal
[28] = tested on: SW-620 colon
[29] = tested on: U251 CNS
[30] = tested on: NCI-H460 lung
[31] = tested on: MDA-MB-231 breast
[32] = tested on: HCC-2998 colon
[33] = tested on: SK-MEL-5 melanoma
[34] = tested on: UO-31 renal
[35] = tested on: TK-10 renal
[36] = tested on: COLO 205 colon
[37] = tested on: HOP-92 NSCLC
[38] = tested on: HS 578T breast
[39] = tested on: NCI-H522 lung
[40] = tested on: NCI-H226 lung
[41] = tested on: NCI-H23 lung
[42] = tested on: SK-MEL-2 melanoma
[43] = tested on: NCI/ADR-RES ovarian
[44] = tested on: SK-OV-3 ovarian
[45] = tested on: CAKI-1 renal
[46] = tested on: HT29 colon
[47] = tested on: OVCAR-5 ovarian
[48] = tested on: OVCAR-3 ovarian
[49] = tested on: A549 NSCLC
[50] = tested on: MDA-MB-435
[51] = tested on: MALME-3M melanoma
[52] = tested on: SF-539 CNS
[53] = tested on: SN12C renal
[54] = tested on: RPMI-8226 leukemia
[55] = tested on: HCT-116 colon
[56] = tested on: SNB-19 CNS

## COc1cc(O)c2c(=O)cc(C3(O)C=CC(=O)C=C3)oc2c1
[1]
  TGI: 447 nM
[2]
  TGI: 580 nM
[3]
  TGI: 486 nM
[4]
  TGI: 32.8 nM
[5]
  TGI: 220 nM
[6]
  TGI: 126 nM
[7]
  TGI: 2750 nM
[8]
  TGI: > 100000 nM
[9]
  TGI: 578 nM
[10]
  TGI: 464 nM
[11]
  TGI: 586 nM
[12]
  TGI: 1110 nM
[13]
  TGI: 3060 nM
[14]
  TGI: 1720 nM
[15]
  TGI: 3180 nM
[16]
  TGI: 3350 nM
[17]
  TGI: 1370 nM
[18]
  TGI: 2370 nM
[19]
  TGI: 11100 nM
[20]
  TGI: 1490 nM
[21]
  TGI: 11100 nM
[22]
  TGI: 2090 nM
[23]
  TGI: 1050 nM
[24]
  TGI: 5790 nM
[25]
  TGI: 786 nM
[26]
  TGI: 17700 nM
[27]
  TGI: 876 nM
[28]
  TGI: 66.3 nM
[29]
  TGI: 80.8 nM
[30]
  TGI: 2060 nM
[31]
  TGI: 789 nM
[32]
  TGI: 1120 nM
[33]
  TGI: 234 nM
[34]
  TGI: 993 nM
[35]
  TGI: 376 nM
[36]
  TGI: 906 nM
[37]
  TGI: 493 nM
[38]
  TGI: 8380 nM
[39]
  TGI: 113 nM
[40]
  TGI: 1730 nM
[41]
  TGI: 2460 nM
[42]
  TGI: 2660 nM
[43]
  TGI: 18900 nM
[44]
  TGI: 13800 nM

## CNCCCNc1nc2ccccc2c2c(=O)c3cc(Cl)ccc3sc12
[1]
  GI50: 1480 nM
  TGI: 2890 nM
[3]
  GI50: 1130 nM
  TGI: 2440 nM
[4]
  GI50: 1510 nM
  TGI: 3180 nM
[5]
  GI50: 1510 nM
  TGI: 2890 nM
[45]
  GI50: 1400 nM
  TGI: 2700 nM
[9]
  GI50: 1820 nM
  TGI: 3340 nM
[12]
  GI50: 1500 nM
  TGI: 2920 nM
[13]
  GI50: 1310 nM
  TGI: 2610 nM
[14]
  GI50: 1500 nM
  TGI: 3010 nM
[15]
  GI50: 1740 nM
  TGI: 3140 nM
[17]
  GI50: 1520 nM
  TGI: 3020 nM
[19]
  GI50: 2550 nM
  TGI: 7410 nM
[20]
  GI50: 13300 nM
  TGI: 40500 nM
[22]
  GI50: 1740 nM
  TGI: 3270 nM
[23]
  GI50: 1800 nM
  TGI: 3310 nM
[25]
  GI50: 1620 nM
  TGI: 3040 nM
[46]
  GI50: 1670 nM
  TGI: 3130 nM
[47]
  GI50: 1620 nM
  TGI: 3030 nM
[48]
  GI50: 1610 nM
  TGI: 3080 nM
[27]
  GI50: 1710 nM
  TGI: 3200 nM
[28]
  GI50: 1620 nM
  TGI: 3090 nM
[30]
  GI50: 1610 nM
  TGI: 3060 nM
[31]
  GI50: 1330 nM
  TGI: 2670 nM
[32]
  GI50: 1690 nM
  TGI: 3340 nM
[33]
  GI50: 2130 nM
  TGI: 5250 nM
[49]
  GI50: 1550 nM
  TGI: 3040 nM
[34]
  GI50: 1160 nM
  TGI: 2420 nM
[50]
  GI50: 1760 nM
  TGI: 3190 nM
[51]
  GI50: 1870 nM
  TGI: 3620 nM
[35]
  GI50: 1990 nM
  TGI: 3480 nM
[36]
  GI50: 1880 nM
  TGI: 3540 nM
[52]
  GI50: 1680 nM
  TGI: 3120 nM
[53]
  GI50: 1540 nM
  TGI: 2930 nM
[37]
  GI50: 935 nM
  TGI: 2810 nM
[38]
  GI50: 1720 nM
  TGI: 4310 nM
[40]
  GI50: 4580 nM
  TGI: 47100 nM
[41]
  GI50: 1610 nM
  TGI: 3180 nM
[42]
  GI50: 1750 nM
  TGI: 3430 nM
[44]
  GI50: 1470 nM
  TGI: 2890 nM

## C/C(=C\c1ccc(Cl)c(Cl)c1)[N+](=O)[O-]
[1]
  GI50: 1710 nM
  TGI: 3290 nM and 4160 nM
[2]
  TGI: 17300 nM
[3]
  TGI: 3150 nM
[4]
  TGI: 3850 nM
[5]
  GI50: 1770 nM
  TGI: 3600 nM and 3820 nM
[6]
  GI50: 2380 nM
  TGI: 11400 nM and 6680 nM
[45]
  GI50: 1100 nM
  TGI: 2510 nM
[7]
  GI50: 1940 nM
  TGI: 6020 nM and 5950 nM
[8]
  GI50: 2580 nM
  TGI: > 100000 nM
[9]
  GI50: 1750 nM
  TGI: 3140 nM and 4810 nM
[10]
  GI50: 1190 nM
  TGI: 2620 nM and 955 nM
[11]
  GI50: 1620 nM
  TGI: 3400 nM
[54]
  GI50: 538 nM
  TGI: 3170 nM
[12]
  TGI: 4130 nM and 3180 nM
[13]
  GI50: 1460 nM
[14]
  GI50: 1660 nM
  TGI: 3310 nM and 3330 nM
[15]
  TGI: 2920 nM and 3120 nM
[16]
  TGI: 3090 nM
[17]
  GI50: 1850 nM
  TGI: 3810 nM
[18]
  GI50: 1570 nM
  TGI: 3130 nM and 3160 nM
[19]
  GI50: 8210 nM
  TGI: 21500 nM and 14800 nM
[20]
  GI50: 7550 nM
  TGI: 20100 nM
[21]
  GI50: 731 nM
[55]
  GI50: 1370 nM
  TGI: 2850 nM and 10200 nM
[22]
  GI50: 2190 nM
  TGI: 5720 nM and 8010 nM
[23]
  TGI: 2560 nM and 2840 nM
[24]
  TGI: 3900 nM and 4580 nM
[25]
  GI50: 1740 nM
  TGI: 3510 nM and 4800 nM
[26]
  GI50: 1510 nM
  TGI: 2900 nM
[46]
  TGI: 5900 nM
[56]
  TGI: 9450 nM
[47]
  GI50: 2250 nM
  TGI: 5090 nM and 4620 nM
[48]
  TGI: 3080 nM and 3470 nM
[27]
  TGI: 3180 nM
[28]
  GI50: 1330 nM
[29]
  TGI: 2710 nM
[30]
  GI50: 3150 nM
  TGI: 14000 nM and > 100000 nM
[31]
  TGI: 3940 nM
[32]
  TGI: 8250 nM
[33]
  GI50: 3050 nM
  TGI: 11300 nM and 3940 nM
[49]
  TGI: 3410 nM and 4520 nM
[34]
  TGI: 2610 nM and 2660 nM
[50]
  GI50: 1840 nM
  TGI: 3710 nM and 4550 nM
[51]
  GI50: 1610 nM
  TGI: 3360 nM and 3830 nM
[35]
  GI50: 1670 nM
  TGI: 3190 nM and 3600 nM
[36]
  GI50: 1780 nM
  TGI: 3270 nM
[52]
  TGI: 5770 nM
[53]
  TGI: 4080 nM
[37]
  GI50: 1430 nM
  TGI: 2990 nM
[38]
  TGI: 9440 nM
[39]
  TGI: 3140 nM
[40]
  GI50: 17500 nM
  TGI: 42600 nM and 5260 nM
[41]
  TGI: 5360 nM
[42]
  TGI: 4050 nM and 4030 nM
[44]
  GI50: 16300 nM
  TGI: 29800 nM
